# Literature values, collected in patent US10537636B2, “Treatment of cancer with therapeutic monoclonal antibody specific for a tumor associated antigen and an immune adjuvant” (Oncoquest, Inc., priority 2017, dated 2020).
# Tested on: advanced ovarian cancer
# Details: mono-immunotherapy following front-line chemotherapy
substance,measurement,value
oregovomab,clinical outcome,failed to improves clinical outcome
